Consider 4 molecules from PMC6388407 (Toxicological sciences : an official journal of the Society …, 2018).

One may read the IC20 as the point of the concentration-response curve where the effect stands at 20%.

The structures appear in SMILES notation. Like-named read-outs stand apart in the source and are kept apart here.

Data set [1] in a line: MTS cell proliferation assay. Format: cell-based, mouse. Conditions: mouse. Background: Formazan colour is commonly taken as a measure of viable cells.
Data set [2] relates to L5178Y mouse lymphoma cells. The experiment in a line: MTS cell proliferation assay. It is filed as cell-based. Conditions: 4-h treatment; for reduction in cell viability, MTS assay: at the lowest concentrations tested; for IC20: read-out: IC20, MTS assay, L5178Y cells.
A short description of data set [3]: CellTiter-Blue cell viability assay. Format: cell-based, mouse. Conditions: mouse, L5178Y mouse lymphoma cells. Background: The colour change of resazurin is a common sign of viable cells or microbes.
A short description of the next data set: Cellular ATP level assay. Format: cell-based, mouse. Conditions: mouse, L5178Y mouse lymphoma cells.
Data set [4] concerns thymidine kinase (Tk) gene of the L5178Y/Tk+/− −3.7.2C mouse lymphoma cell line. As to the kind of experiment: Mouse lymphoma assay. Format: cell-based. Conditions: for BMDL10, MLA without S9: lower limit of the 10% BMD, Hill model of PROAST, MF data; for Ranking, MLA without S9: potency ranking by BMDL10, 1 = most potent.
Data set [5] shares this test system. As to the kind of experiment: Mouse lymphoma assay. Format: cell-based. The following applies: for BMDL10, MLA with S9: lower limit of the 10% BMD, Hill model of PROAST, MF data; for Ranking, MLA with S9: potency ranking by BMDL10, 1 = most potent.
The subject of data set [6] is L5178Y mouse lymphoma cells. The experiment in a line: Alkaline Comet assay. It is filed as cell-based. The following applies: for lowest concentration that induced significant DNA damage / highest percentage of DNA in tail: 4-h treatment; for lowest concentration that induced significant DNA damage: absence of S9; for highest percentage of DNA in tail: absence of S9, background approximately 5%; for BMDL10, Comet assay: lower limit of the 10% BMD, Hill model of PROAST, %DNA in tail data, without S9.

Data set [7] relates to Tk mutants of L5178Y mouse lymphoma cells. The experiment in a line: LOH evaluation of Tk mutants from the MLA. Format: cell-based. The following applies: with vs without S9, p < .05.
The subject of another data set is Chinese hamster cells. The following applies: ref Mitchell et al., 1991, cited from earlier work.
Data set [8] concerns Chinese hamster ovary AS52 cells. Conditions: CHO AS52 cells; ref DeGraff et al., 1992; cited from earlier work.
For data set [9], the system named is L5178Y mouse lymphoma cells. The experiment in a line: CellTiter-Blue cell viability assay. Format: cell-based. The following applies: read-out: IC20, Blue assay; L5178Y cells, 4-h treatment.
Data set [10] deals with L5178Y mouse lymphoma cells. The experiment in a line: Cellular ATP level assay. It is filed as cell-based. Conditions: read-out: IC20, ATP assay; L5178Y cells, 4-h treatment.
Data set [11] has as its system thymidine kinase (Tk) gene of the L5178Y/Tk+/− −3.7.2C mouse lymphoma cell line. Conditions: ref Guo et al., 2013, cited from earlier work.
The test system is the same in data set [12]. Conditions: with S9, at concentration that produced 10%–20% RTG; ref Guo et al., 2013; cited from earlier work.
The subject of data set [13] is TK6 human lymphoblastoid cells. The following applies: ref Guo et al., 2013; cited from earlier work.
[14] abbreviates: absence of S9, at the cytotoxicity limit for the MLA.
The mark [15] stands for this setting: without S9, at concentration that produced 10%–20% RTG.

For `CC1(C)CC(O)CC(C)(C)N1[O]` [4-hydroxy-TEMPO], in [1], it took 356 µM to reach the 20% level (IC20 at 4 h). The “reduction in cell viability, MTS assay” value in [2] is “approximately 50%”. This molecule had an IC20 at 4 h in data set [3] of 1780 µM. This molecule also had an IC20 at 4 h in “Cellular ATP level assay” of 6390 µM. In data set [4], the “BMDL10, MLA without S9” value was found to be 1.300 and the “Ranking, MLA without S9” value is listed as 4. For the same molecule, in [5], the “BMDL10, MLA with S9” value was found to be 1.024 and the “Ranking, MLA with S9” value is 4. For the same molecule, in data set [6], the “lowest concentration that induced significant DNA damage” value was 4 mM; the “highest percentage of DNA in tail” value worked out at 21%; the “BMDL10, Comet assay” value is on record as 1.612. For the same molecule, the “effect of metabolic activation on mutational spectra (LOH)” value in [7] is listed as “significantly altered”. The radiation protection factor in the data set with Chinese hamster cells (10 mM for 10 min prior to X-irradiation) is given as 1.3. The radiation protection factor with Chinese hamster cells (100 mM for 10 min prior to X-irradiation) is on record as 2.5. Also, the mutagenicity and toxicity entry in data set [8] is “not mutagenic or toxic”.
`COC1CC(C)(C)N([O])C(C)(C)C1` [4-methoxy-TEMPO]: in data set [2], the “reduction in cell viability, MTS assay” value was “approximately 50%” and the IC20 worked out at 30 µM. The IC20 in data set [9] was found to be 2580 µM. Also, the IC20 in data set [10] was found to be 3870 µM. Further, the “mutant frequency (MF)” value in data set [4] (setting [14]) is on record as 537 × 10^−6. In data set [4], the “BMDL10, MLA without S9” value turned out to be 0.756 and the “Ranking, MLA without S9” value is 2. For the same molecule, the “mutant frequency (MF)” value in data set [4] (setting [15]) came to 508 per million cells. Also, in data set [5], the “BMDL10, MLA with S9” value turned out to be 0.770 and the “Ranking, MLA with S9” value is given as 3. In data set [5] (with S9, at concentration that produced 10%–20% RTG), the “mutant frequency (MF)” value was 961 per million cells. Besides, in data set [6], the “lowest concentration that induced significant DNA damage” value is reported as 6 mM; the “highest percentage of DNA in tail” value amounted to 13%; the “BMDL10, Comet assay” value came out at 3.358.
In the case of `CC1(C)CC(=O)CC(C)(C)N1[O]` [4-oxo-TEMPO], the IC20 in data set [2] stood at 1550 µM. Besides, the 20% effect concentration (IC20) in data set [9] came to 1950 µM. In addition, in data set [10], the IC20 amounted to 1730 µM. Moreover, the “mutant frequency (MF)” value in data set [4] (setting [14]) is listed as 584 × 10^−6. In addition, in data set [4], the “BMDL10, MLA without S9” value is listed as 0.661 and the “Ranking, MLA without S9” value was 1. Also, in data set [5], the “BMDL10, MLA with S9” value is given as 0.058 and the “Ranking, MLA with S9” value turned out to be 1. In data set [6], the “lowest concentration that induced significant DNA damage” value was 3 mM; the “highest percentage of DNA in tail” value came out at 14%; the “BMDL10, Comet assay” value stood at 1.114.
As to `CC1(C)CCCC(C)(C)N1[O]` [TEMPO, 2,2,6,6-tetramethylphiperidine-1-oxyl], in data set [2], the “reduction in cell viability, MTS assay” value is “approximately 50%” and the concentration for an effect of 20% (IC20) was 11 µM. Further, the IC20 in data set [9] came out at 4970 µM. The 20% effect concentration (IC20) in data set [10] came to 1920 µM. In data set [4], the “BMDL10, MLA without S9” value is 0.981 and the “Ranking, MLA without S9” value is 3. Besides, in data set [5], the “BMDL10, MLA with S9” value was found to be 0.257 and the “Ranking, MLA with S9” value was 2. For the same molecule, in [6], the “lowest concentration that induced significant DNA damage” value amounted to 2 mM; the “highest percentage of DNA in tail” value is given as 28%; the “BMDL10, Comet assay” value is 0.454. Also, the “effect of metabolic activation on mutational spectra (LOH)” value in data set [7] is given as “significantly altered”. The “mutant frequency (MF)” value in data set [11] (setting [14]) is listed as 208 × 10^−6. For the same molecule, in [11] (earlier study, with and without 1% S9), the MLA result is “mutagenic”. Moreover, the “mutant frequency (MF)” value in data set [11] (setting [15]) was 208 per million cells. Besides, the “mutant frequency (MF)” value in data set [12] is 502 per million cells. Besides, in [13], the micronucleus induction entry is given as “induced micronuclei”.
